Experimental data reported in patent US9445596B2, “Small molecule compounds for the control of nematodes” (California Institute of Technology, priority 2011, dated 2016).
“Also recorded” adds a separate entry of the source.

Legend:
[1] = test system: several of the tested nematode species; assay: Retention assay, several nematode species; type: in vivo; settings: 1 nM, 1 μM and 1 mM tested
Description: (§1) OP50 E. coli was grown on a standard 5 cm agar plate (made with standard Nematode Growth Medium). The bacterial lawn was 16 mm in diameter and was grown overnight at 20° C. before being used in trials. Two 4 mm spots (0.6 μL) were placed on opposite sides of the bacterial lawn (using a transparent template to guide spot placement), and several minutes elapsed for the liquid to settle in before placing nematodes down on the assay. Recording began immediately upon worm placement. 0.6 μL of the control was placed on one side of the lawn, and 0.6 μL of the experimental cue was placed on the other side of the lawn, changing the location of the cue throughout trials between left/right and top/bottom to avoid bias.
Nematodes were isolated by gender at the L4 stage the day before being used in trials as developed adults. Worms were evenly divided and placed at two points equidistant from the foci of the scoring region. Trials were recorded for 20 minutes, and frames were collected for analysis at 1 frame per second. Results were averaged from at least three different trials. For every nematode species in this study, a different total number of worms (using water in both scoring regions) was tested to determine the minimum number of worms necessary for consistent unbiased results over a 20 minute trial. The total number of worms used in the multiple species assays depended on that species' optimal parameters. 10 worms were used for P. redivivus males and females, 20 worms were used for C. elegans males and O. dolichuridae males, and 14 worms were used for S. glaseri males. The Automated Software was used to compare worm occupancy in each scoring region over time, and the Chemotaxis Index (Bargmann et al., Cell 74:515-27 (1993), which is hereby incorporated by reference in its entirety) was adapted to score preference or avoidance to each ascaroside.
A video camera attached to the microscope produced a digital video stream, which was then analyzed. The ratio of the time the average worm spent in each region of interest was calculated for every trial. For ease of implementation, all worms in a single experiment were assumed to be roughly the same size. Thus worm pixels were counted instead of whole worms, allowing fractions of a worm in the region of interest to be taken into account. It also eliminated the need for a shape-based worm identification algorithm, and allowed each frame to be analyzed independently. A band-pass filter was applied to each frame to eliminate the effect of uneven lighting and also accentuate the worms against the background. The worm was then identified after thresholding the filtered image. Throughout each experiment, the locations and sizes of the regions of interest were known. Through the filtering described above, it is known which pixels are occupied by worms and which ones are not. Thus, the ratio of worm-pixels to all pixels inside the region of interest can be calculated to produce the worm-occupancy ratio. This calculation was done for every frame, giving a plot output of worm-occupancy ratio vs. time for each region.

P. pacificus = assay: Dauer formation assay; type: in vivo, Pristionchus pacificus; settings: even at very high concentrations (20 μM)
Description: Dauer formation assays were performed as described in Ogawa et al., Curr. Biol. 19:67-71 (2009), which is hereby incorporated by reference in its entirety, using heat- or kanamycin-killed E. coli OP50. Synthetic compounds were dissolved in ethanol (0.5 mM, stock solution) and combined with water to make a […] and subsequently added to 3 mL NGM-agar without peptone ([…], 0.3, 0.1 μM final concentrations).

[2] = test system: P. pacificus strain RSB020; assay: Mouth-form dimorphism assay; type: in vivo, Pristionchus pacificus; settings: high concentrations
Description: Mouth-form dimorphism assays were performed using P. pacificus strain RSB020. The synthetic compounds dissolved in ethanol (0.5 mM) were diluted with water to make 100 μl solution and subsequently added to 3 mL NGM-agar (1 μM final concentration). The assay plates were seeded with 50 μl OP50 culture in LB medium and incubated overnight at 20° C. to allow bacterial growth. Each replicate included the progeny of two mothers, which were picked as adult hermaphrodites of a consistent age (carrying 4-6 eggs) and which were all from the same P. pacificus culture plate. Following the placement of mothers on assay plates, plates were kept at 20° C. for six days, such that the entire broods were adults at the time of screening. A random sample of 50 hermaphrodite progeny was screened per plate. All animals were screened by differential interference contrast (DIC) microscopy on a Zeiss Axiskop. The following discrete characters were used to discriminate eurystomatous from stenostomatous individuals, respectively: (1) claw-shaped vs. flint-shaped (i.e. dorsoventrally symmetrical) dorsal tooth; (2) presence vs. absence of a subventral tooth; (3) strongly vs. weakly sclerotized stomatal walls. No intermediate mouth-forms were observed. Experiments were conducted in triplicate for each treatment. In assays of responses to compounds of several concentrations (1, 0.3, 0.1, 0.03, 0.01 μM final concentrations), experiments were performed as described above, with the following modifications. To allow greater resolution of responses to lower concentrations, 60 randomly screened individuals in each of five replicates per concentration per compound were assayed. All concentration-curve experiments were performed in parallel using mothers picked randomly from the same two source populations. To prepare large numbers of individual mothers for these experiments, source populations were established from virgin hermaphrodites to constrain the presence of males and were conditioned to well-fed and ambient conditions for at least one generation before mothers were picked for the assays.

males = assay: Bioassay of HPLC-purified peak; type: in vivo; settings: purified peak with retention time of 9.7 minutes
Description: A Thermo Finnigan LCQ Deca XP Max was used with electrospray ionization in positive ion mode in the 50-1000 AMU range. The Thermo Separation spectra HPLC system consisted of a P4000 quaternary pump, an AS 3000 auto sampler, and a UV 6000 diode array detector. The solvents were water with (a) 0.1% formic acid and (b) 90% acetonitrile-10% water with 10 mM ammonium formate. The column temperature was maintained at 60° C. and a solvent flow of 1.0 ml/min. The reversed phase column (PLRP-S Polymeric reversed phase column, 250×4.6 mmid, Varian Inc.) was eluted with a solvent composition starting with 90:10 (a,b) for 2 minutes, followed by a gradient to 5:95 in 20 minutes and an additional 5 minutes at 5:95. Ultraviolet absorption was monitored at 190 and 400 nm. Solvent flow between the ultraviolet detector and mass spectroscopy electrospray interface split 9:1 with a low-volume micro needle P450 splitter valve (Upchurch Scientific, Oak Harbor, Wash.), making it possible to obtain spectra of eluted compounds and simultaneously collect 90% of the injected material for bioassay. […] This was confirmed to be ascr#1 using NMR analysis.

C. elegans males = assay: Retention assay, C. elegans males; type: in vivo
Description: as §1, with “0.6 μL of the control was placed on one side of the lawn, and 0.6 μL of the experimental cue was placed on the other side of the lawn, changing the location of the cue throughout trials between left/right and top/bottom to avoid bias.” left out
(§2) Nematodes were isolated by gender at the L4 stage the day before being used in trials as developed adults. […] Trials were recorded for 20 minutes, and frames were collected for analysis at 1 frame per second. […]
(§3) A video camera attached to the microscope produced a digital video stream, which was then analyzed. The ratio of the time the average worm spent in each region of interest was calculated for every trial. […] Thus worm pixels were counted instead of whole worms, allowing fractions of a worm in the region of interest to be taken into account. It also eliminated the need for a shape-based worm identification algorithm, and allowed each frame to be analyzed independently. […] Thus, the ratio of worm-pixels to all pixels inside the region of interest can be calculated to produce the worm-occupancy ratio. […]

S. glaseri males = assay: Retention assay, S. glaseri males; type: in vivo
Description: as §1, with “0.6 μL of the control was placed on one side of the lawn, and 0.6 μL of the experimental cue was placed on the other side of the lawn, changing the location of the cue throughout trials between left/right and top/bottom to avoid bias.” left out
as §2, §3

[3] = test system: P. redivivus males and females; assay: Retention assay, P. redivivus; type: in vivo
Description: as §1
Nematodes were isolated by gender at the L4 stage the day before being used in trials as developed adults. Worms were evenly divided and placed at two points equidistant from the foci of the scoring region. Trials were recorded for 20 minutes, and frames were collected for analysis at 1 frame per second. Results were averaged from at least three different trials. For every nematode species in this study, a different total number of worms (using water in both scoring regions) was tested to determine the minimum number of worms necessary for consistent unbiased results over a 20 minute trial. The total number of worms used in the multiple species assays depended on that species' optimal parameters. […]
as §3

[4] = test system: C. elegans hermaphrodites and males; assay: Spot attraction assay; type: in vivo
Description: The spot attraction assays were conducted according to a previously reported method (Pungaliya et al., PNAS 106:7708-13 (2009); Srinivasan et al., Nature 454:1115-18 (2008), which are hereby incorporated by reference in their entirety). For both C. elegans hermaphrodites and males, 50-60 worms were harvested daily at the fourth larval stage (L4) and stored segregatedly by sex at 20° C. overnight, to be used as young adults the following day. For the competition experiments, two conditions were used: 120 nM ascr#3 and 10 nM icas#3 (Condition 1), or 12 μM ascr#3 and 1 μM icas#3 (Condition 2) in water containing 10% ethanol. Aliquots were stored at −20° C. in 20 μL tubes. 10% ethanol in water was used as control.
Attraction assays with hbas#3 were conducted as previously reported (Srinivasan et al., Nature 454:1115-18 (2008); Pungaliya et al., Proc. Natl. Acad. Sci. U.S.A. 106:7708-13 (2009), which are hereby incorporated by reference in their entirety). For the attraction assays, 50-60 hermaphrodite worms were harvested daily at the early fourth larval stage (L4) and stored at 20° C. overnight to be used as young adults the following day. Hbas#3 was dissolved in water containing 10% ethanol. Aliquots were stored at −20° C. in 20 μL tubes. 10% ethanol in water was used as control.

C. elegans [5] = assay: Aggregation assay; type: in vivo
Description: Aggregation behavior of worms was measured using assays reported in de Bono & Bargmann, Cell 94:679-89 (1998), which is hereby incorporated by reference in its entirety. Aggregation assays were conducted on standard NGM plates. Plates containing indole ascarosides were made by adding the indole ascaroside stock solution to the NGM media before they were poured onto the plates. These plates were dried at room temperature for 2 to 3 days. Control plates were treated similarly, except that ethanol solutions instead of icas solutions were added to the plates, corresponding to the amount of ethanol introduced via the icas solutions. Final ethanol concentrations of the plates were below 0.1% for all conditions. After drying, both control plates and plates containing indole ascarosides were seeded with 150 μl of an overnight culture of E. coli OP50 using a micropipette, and were allowed to dry for 2 days at room temperature. For “low worm density” experiments, 20 worms were placed onto the lawn and left at 20° C. for 3 hours. For “high worm density” experiments, approximately 120 worms were placed onto the bacterial lawn and left at 20° C. for 3 hours. Aggregation behavior was quantified as the number of animals that were in touch with two or more animals at greater than 50% of their body length.

C. elegans [6] = settings: Srinivasan et al. 2012; cited from earlier work
C. elegans [7] = settings: cited from earlier work
[8] = Butcher et al., Org. Lett. 2009

SMILES	preference for areas conditioned by the ascaroside [1]	dauer induction (P. pacificus)	induction of the eurystomatous mouth form [2]	activity in the bioassay (males)	concentration of conditioned regions preferred (activity threshold) (C. elegans males)	concentration of conditioned regions preferred (activity threshold) (S. glaseri males)	concentration of conditioned regions preferred (activity threshold) ([3]; males)	attraction in the spot attraction assay ([4]; 1 pmol, N2 hermaphrodites and him-5 males)	attraction in the spot attraction assay ([4]; high concentrations, males and hermaphrodites)	attraction of hermaphrodites ([4]; low concentrations, N2 hermaphrodites)	attraction of males ([4]; low concentrations, males)	concentrations at which active as hermaphrodite attractants and aggregation signals (C. elegans [5]; in vivo)	aggregation of hermaphrodites (C. elegans [5]; low worm density, solitary and social hermaphrodites)	response of P. redivivus females ([3]; females)	response of P. redivivus males ([3]; males)	aggregation in C. elegans (C. elegans [6])	dauer-inducing activity (C. elegans [7]; [8])	shape of dauer response curve (C. elegans [7]; [8])	promotion of dauer entry (C. elegans [7]; shown previously)
C[C@H](CCCCC(=O)O)O[C@@H]1O[C@@H](C)[C@H](O)C[C@H]1O [ascr#1, reference compound]	preferred	does not induce dauer formation; also recorded: no dauer-inducing activity	weaker induction of the eurystomatous mouth form	active to males	–	–	–	–	–	–	–	–	–	–	–	–	–	–	–
CC1O[C@@H](O[C@H](C)CCCCCCC(=O)O)C(O)C[C@H]1O (some centres unmarked) [ascr#10]	preferred	–	–	–	1 µM	1 mM	1 mM	–	–	–	–	–	–	–	–	–	–	–	–
C[C@H](CCC(=O)O)O[C@@H]1O[C@@H](C)[C@H](OC(=O)c2c[nH]c3ccccc23)C[C@H]1O [icas#9, reference compound]	–	–	–	–	–	–	–	attractive to both C. elegans sexes	attracted both males and hermaphrodites	strongly attracted	not attracted; also recorded: not males	femtomolar to picomolar	increased aggregation of both solitary and social hermaphrodites	repeled	elicited no response	aggregating stimulant	moderate dauer-inducing activity	bell-shaped response curve	individually promote dauer entry
